Measurements: patent publication US20250147039A1, “Compounds for complexation of rare earth elements and/or s-, p-, d- block metals, their coordination compounds, peptide conjugates, method of their preparation and use thereof” (USTAV ORGANICKE CHEMIE A BIOCHEMIE AV CR V.V.I., priority 2021, published 2025)

How the values were obtained:
[1] = Formation of 1,5-cz-[Ln(Lig)] from Lig and Ln^III ions (metal dependent click-zip), MOPS/NaOH buffer pH 7.0, analytical HPLC (Charts 1, 2); settings: MOPS/NaOH buffer pH 7.0
[2] = Formation of 1,5-cz-[M(Lig)] from Lig and M^III ions (metal dependent click-zip) (Charts 4, 5); format: physicochemical; settings: MOPS/NaOH buffer pH 7.0, TD728, TD827 in 50% i-PrOH; for conversion to 1,5-cz-[M(Lig)], Y^III: TD714 sum of two diastereoisomers

conversion to 1,5-cz-[Ln(Lig)], Ce^III ([1]; after 1 hour at 80° C.) | conversion to 1,5-cz-[Ln(Lig)], Dy^III ([1]; after 1 week at 80° C.) | conversion to 1,5-cz-[Ln(Lig)], Dy^III ([1]; after 1 hour at 80° C.) | conversion to 1,5-cz-[Ln(Lig)], Er^III ([1]; after 1 week at 80° C.) | conversion to 1,5-cz-[Ln(Lig)], Er^III ([1]; after 1 hour at 80° C.) | conversion to 1,5-cz-[Ln(Lig)], Eu^III ([1]; after 1 week at 80° C.) | conversion to 1,5-cz-[Ln(Lig)], Eu^III ([1]; after 1 hour at 80° C.) | conversion to 1,5-cz-[Ln(Lig)], Gd^III ([1]; after 1 week at 80° C.) | conversion to 1,5-cz-[Ln(Lig)], Gd^III ([1]; after 1 hour at 80° C.) | conversion to 1,5-cz-[Ln(Lig)], Ho^III ([1]; after 1 week at 80° C.) | conversion to 1,5-cz-[Ln(Lig)], Ho^III ([1]; after 1 hour at 80° C.) | conversion to 1,5-cz-[Ln(Lig)], La^III ([1]; after 1 hour at 80° C.) | conversion to 1,5-cz-[Ln(Lig)], Lu^III ([1]; after 1 week at 80° C.) | conversion to 1,5-cz-[Ln(Lig)], Lu^III ([1]; after 1 hour at 80° C.) | conversion to 1,5-cz-[Ln(Lig)], Nd^III ([1]; after 1 hour at 80° C.) | conversion to 1,5-cz-[Ln(Lig)], Pr^III ([1]; after 1 hour at 80° C.) | conversion to 1,5-cz-[Ln(Lig)], Sm^III ([1]; after 1 week at 80° C.) | conversion to 1,5-cz-[Ln(Lig)], Sm^III ([1]; after 1 hour at 80° C.) | conversion to 1,5-cz-[Ln(Lig)], Tb^III ([1]; after 1 hour at 80° C.) | conversion to 1,5-cz-[Ln(Lig)], Tm^III ([1]; after 1 week at 80° C.) | Structure (SMILES) | other results
1% | 94% | 16% | 95% | 37% | 92% | 4% | 91% | 5% | 95% | 24% | 1% | 95% | 71% | 2% | 1% | 92% | 3% | 11% | 95% | C#Cc1cccc(CN2CCN(CC(=O)O)CCN(Cc3cccc(CN=[N+]=[N-])n3)CCN(CC(=O)O)CC2)n1 [TD556] | conversion to 1,5-cz-[Ln(Lig)], Ce^III ([1]; after 1 week at 80° C.): 25%; conversion to 1,5-cz-[Ln(Lig)], La^III ([1]; after 1 week at 80° C.): 50%; conversion to 1,5-cz-[Ln(Lig)], Nd^III ([1]; after 1 week at 80° C.): 81%; conversion to 1,5-cz-[Ln(Lig)], Pr^III ([1]; after 1 week at 80° C.): 64%; conversion to 1,5-cz-[Ln(Lig)], Tb^III ([1]; after 1 week at 80° C.): 95%; conversion to 1,5-cz-[Ln(Lig)], Tm^III ([1]; after 1 hour at 80° C.): 52%; conversion to 1,5-cz-[Ln(Lig)], Yb^III ([1]; after 1 week at 80° C.): 95%; conversion to 1,5-cz-[Ln(Lig)], Yb^III ([1]; after 1 hour at 80° C.): 64%; conversion to 1,5-cz-[M(Lig)], Sc^III ([2]; 1 week at 80° C.): 23%; conversion to 1,5-cz-[M(Lig)], Y^III ([2]; 1 week at 80° C.): 95%; conversion to 1,5-cz-[M(Lig)], Sc^III ([2]; 1 hour at 80° C.): 2%; conversion to 1,5-cz-[M(Lig)], Y^III ([2]; 1 hour at 80° C.): 22%
0% | 20% | 0% | 12% | 0% | 25% | 0% | 24% | 0% | 14% | 0% | 0% | 7% | 0% | 0% | 0% | 33% | 0% | 0% | 11% | C#CCN(CC#C)CCN1CCN(CC(=O)O)CCN(Cc2cc(-c3ccccc3)cc(CN=[N+]=[N-])n2)CCN(CC(=O)O)CC1 [TD669] | conversion to 1,5-cz-[Ln(Lig)], Tm^III ([1]; after 1 hour at 80° C.): 0%; conversion to 1,5-cz-[Ln(Lig)], Yb^III ([1]; after 1 week at 80° C.): 10%; conversion to 1,5-cz-[Ln(Lig)], Yb^III ([1]; after 1 hour at 80° C.): 0%; conversion to 1,5-cz-[M(Lig)], Sc^III ([2]; 1 week at 80° C.): 0%; conversion to 1,5-cz-[M(Lig)], Y^III ([2]; 1 week at 80° C.): 12%; conversion to 1,5-cz-[M(Lig)], Sc^III ([2]; 1 hour at 80° C.): 0%; conversion to 1,5-cz-[M(Lig)], Y^III ([2]; 1 hour at 80° C.): 0%
0% | 65% | 5% | 91% | 17% | 14% | 1% | 19% | 2% | 82% | 9% | 0% | 96% | 49% | 0% | 0% | 9% | 1% | 3% | 96% | [N-]=[N+]=NCc1cc(-c2ccccc2)cc(CN2CCN(CC(=O)O)CCN(Cc3cccc(C#CCN)n3)CCN(CC(=O)O)CC2)n1 [TD722] | conversion to 1,5-cz-[Ln(Lig)], Ce^III ([1]; after 1 week at 80° C.): 1%; conversion to 1,5-cz-[Ln(Lig)], La^III ([1]; after 1 week at 80° C.): 2%; conversion to 1,5-cz-[Ln(Lig)], Nd^III ([1]; after 1 week at 80° C.): 4%; conversion to 1,5-cz-[Ln(Lig)], Pr^III ([1]; after 1 week at 80° C.): 3%; conversion to 1,5-cz-[Ln(Lig)], Tb^III ([1]; after 1 week at 80° C.): 54%; conversion to 1,5-cz-[Ln(Lig)], Tm^III ([1]; after 1 hour at 80° C.): 27%; conversion to 1,5-cz-[Ln(Lig)], Yb^III ([1]; after 1 week at 80° C.): 96%; conversion to 1,5-cz-[Ln(Lig)], Yb^III ([1]; after 1 hour at 80° C.): 38%; conversion to 1,5-cz-[M(Lig)], Sc^III ([2]; 1 week at 80° C.): 14%; conversion to 1,5-cz-[M(Lig)], Y^III ([2]; 1 week at 80° C.): 71%; conversion to 1,5-cz-[M(Lig)], Sc^III ([2]; 1 hour at 80° C.): 3%; conversion to 1,5-cz-[M(Lig)], Y^III ([2]; 1 hour at 80° C.): 9%
1% | 93% | 15% | 94% | 34% | 89% | 4% | 91% | 5% | 94% | 22% | 1% | 94% | 66% | 1% | 1% | 87% | 3% | 9% | 94% | C#Cc1cccc(CN2CCN(CC(=O)O)CCN(Cc3cc(-c4ccc(C(=O)O)cc4)cc(CN=[N+]=[N-])n3)CCN(CC(=O)O)CC2)n1 [TD742] | conversion to 1,5-cz-[Ln(Lig)], Ce^III ([1]; after 1 week at 80° C.): 43%; conversion to 1,5-cz-[Ln(Lig)], La^III ([1]; after 1 week at 80° C.): 40%; conversion to 1,5-cz-[Ln(Lig)], Nd^III ([1]; after 1 week at 80° C.): 76%; conversion to 1,5-cz-[Ln(Lig)], Pr^III ([1]; after 1 week at 80° C.): 66%; conversion to 1,5-cz-[Ln(Lig)], Tb^III ([1]; after 1 week at 80° C.): 93%; conversion to 1,5-cz-[Ln(Lig)], Tm^III ([1]; after 1 hour at 80° C.): 48%; conversion to 1,5-cz-[Ln(Lig)], Yb^III ([1]; after 1 week at 80° C.): 93%; conversion to 1,5-cz-[Ln(Lig)], Yb^III ([1]; after 1 hour at 80° C.): 55%; conversion to 1,5-cz-[M(Lig)], Sc^III ([2]; 1 week at 80° C.): 52%; conversion to 1,5-cz-[M(Lig)], Y^III ([2]; 1 week at 80° C.): 94%; conversion to 1,5-cz-[M(Lig)], Sc^III ([2]; 1 hour at 80° C.): 7%; conversion to 1,5-cz-[M(Lig)], Y^III ([2]; 1 hour at 80° C.): 22%
20% | 18% | 13% | 32% | 25% | 3% | 4% | 11% | 4% | 30% | 17% | 24% | 34% | 26% | 9% | 13% | 1% | 4% | 9% | 31% | C#Cc1cccc(CN2CCN(CC(=O)NCC(=O)O)CCN(Cc3cc(-c4ccccc4)cc(CN=[N+]=[N-])n3)CCN(CC(=O)NCC(=O)O)CC2)n1 [TD778] | conversion to 1,5-cz-[Ln(Lig)], Ce^III ([1]; after 1 week at 80° C.): 0%; conversion to 1,5-cz-[Ln(Lig)], La^III ([1]; after 1 week at 80° C.): 0%; conversion to 1,5-cz-[Ln(Lig)], Nd^III ([1]; after 1 week at 80° C.): 0%; conversion to 1,5-cz-[Ln(Lig)], Pr^III ([1]; after 1 week at 80° C.): 0%; conversion to 1,5-cz-[Ln(Lig)], Tb^III ([1]; after 1 week at 80° C.): 15%; conversion to 1,5-cz-[Ln(Lig)], Tm^III ([1]; after 1 hour at 80° C.): 31%; conversion to 1,5-cz-[Ln(Lig)], Yb^III ([1]; after 1 week at 80° C.): 27%; conversion to 1,5-cz-[Ln(Lig)], Yb^III ([1]; after 1 hour at 80° C.): 30%; conversion to 1,5-cz-[M(Lig)], Sc^III ([2]; 1 week at 80° C.): 0%; conversion to 1,5-cz-[M(Lig)], Y^III ([2]; 1 week at 80° C.): 27%; conversion to 1,5-cz-[M(Lig)], Sc^III ([2]; 1 hour at 80° C.): 0%; conversion to 1,5-cz-[M(Lig)], Y^III ([2]; 1 hour at 80° C.): 17%
